Test results published in US20040156869A1, “2-substituted quinazolin-4-ylamine analogues” (Neurogen Corporation, priority 2002, published 2004).
pKi: −log10 of the molar value.

Target: human capsaicin receptor (VR1) (Homo sapiens, UniProt Q8NER1)
Assay: Capsaicin receptor binding assay ([3H]RTX competition, VR1-transfected HEK293 membranes)
Conditions: Table III; capsaicin receptor binding

Chain of human capsaicin receptor (VR1) (Q8NER1 whole entry): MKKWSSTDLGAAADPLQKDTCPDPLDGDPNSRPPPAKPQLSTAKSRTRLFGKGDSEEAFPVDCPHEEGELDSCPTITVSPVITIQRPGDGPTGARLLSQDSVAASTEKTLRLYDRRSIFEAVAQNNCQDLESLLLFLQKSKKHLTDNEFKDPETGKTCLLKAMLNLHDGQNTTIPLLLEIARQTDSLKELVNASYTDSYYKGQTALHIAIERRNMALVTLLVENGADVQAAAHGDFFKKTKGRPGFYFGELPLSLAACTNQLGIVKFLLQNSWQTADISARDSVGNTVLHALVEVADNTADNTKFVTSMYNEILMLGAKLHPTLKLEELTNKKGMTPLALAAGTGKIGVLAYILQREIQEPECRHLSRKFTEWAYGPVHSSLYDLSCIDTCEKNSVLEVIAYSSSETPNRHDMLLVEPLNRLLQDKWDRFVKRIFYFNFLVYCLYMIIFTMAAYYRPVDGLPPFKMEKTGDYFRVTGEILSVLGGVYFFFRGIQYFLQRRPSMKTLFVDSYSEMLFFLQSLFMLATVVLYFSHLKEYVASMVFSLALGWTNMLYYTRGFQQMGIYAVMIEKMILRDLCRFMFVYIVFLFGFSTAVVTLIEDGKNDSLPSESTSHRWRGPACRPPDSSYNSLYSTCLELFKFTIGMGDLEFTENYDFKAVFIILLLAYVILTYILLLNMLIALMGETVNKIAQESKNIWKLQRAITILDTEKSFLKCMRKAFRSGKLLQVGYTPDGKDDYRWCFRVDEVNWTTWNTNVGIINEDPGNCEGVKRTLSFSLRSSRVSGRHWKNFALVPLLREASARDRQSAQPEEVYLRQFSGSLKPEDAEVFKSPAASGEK

pKi: > 6.00
Substance: [2-(2,6-Dimethyl- morpholin-4-ylmethyl)-7- (3-trifluoromethyl-pyridin- 2-yl)-pyrido[3,2- d]pyrimidin-4-yl]-(4- methanesulfonyl-phenyl)- amine (cis) [Compound 584]
